These results are taken from patent US10906915B2, “Substituted pyrazoloazepin-4-ones and their use as phosphodiesterase inhibitors” (LEO Pharma A/S, priority 2016, dated 2021).

Broadly, the IC50 is the concentration that inhibits the measured activity by half.

Chain of human PDE4D catalytic domain (Q08499 380-740 limits assumed): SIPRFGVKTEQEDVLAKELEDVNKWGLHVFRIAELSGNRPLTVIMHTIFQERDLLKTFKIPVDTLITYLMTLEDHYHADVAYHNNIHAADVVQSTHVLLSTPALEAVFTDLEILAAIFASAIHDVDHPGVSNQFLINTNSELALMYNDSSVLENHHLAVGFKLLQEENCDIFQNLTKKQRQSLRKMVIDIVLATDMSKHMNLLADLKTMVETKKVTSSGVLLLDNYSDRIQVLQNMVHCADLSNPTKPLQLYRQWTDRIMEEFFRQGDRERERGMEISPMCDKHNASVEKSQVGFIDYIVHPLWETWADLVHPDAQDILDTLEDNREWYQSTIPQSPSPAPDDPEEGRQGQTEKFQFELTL

The assay concerns the target human PDE4D catalytic domain (UniProt no. Q08499) (Homo sapiens (Human), UniProt Q08499). In words: PDE4 assay (TR-FRET, FAM-cAMP cleavage). Type of assay: biochemical. The settings on record: human PDE4D catalytic domain; molar concentration giving 50% inhibition of substrate cleavage; read-out: PDE4 IC50 range. The procedure, abridged:
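PDE4D catalytic domain ([…]) was incubated with unlabelled cAMP plus FAM-cAMP and titrated compound, stopped with binding buffer of metal-ion nanoparticles and Tb donor. AMP generation read by TR-FRET; IC50 as 50% inhibition of cleavage versus controls, reported as nM ranges.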
(In TR-FRET formats the signal depends on donor and acceptor labels being close together.)
Consider `CCc1nn(CCCOC(=O)c2ccc(C(=O)N3CCCCC3)cc2)c2c1C(=O)NCC1(CCOCC1)C2` [Example 146, 3-(3-ethyl-4-oxo-spiro[6,8-dihydro-5H-pyrazolo[4,3-c]azepine-7,4′-tetrahydropyran]-1-yl)propyl 4-(piperidine-1-carbonyl)benzoate], for which the IC50 is less than 0.1 µM.
As for `CCc1nn(CCCOC(=O)c2ccc(C(=O)N3CCOCC3)cc2)c2c1C(=O)NCC1(CCOCC1)C2` [Example 147, 3-(3-ethyl-4-oxo-spiro[6,8-dihydro-5H-pyrazolo[4,3-c]azepine-7,4′-tetrahydropyran]-1-yl)propyl 4-(morpholine-4-carbonyl)benzoate], the IC50 fell in the range of 0.1 to 0.5 µM.
As to `CCc1nn(CCCOC(=O)c2ccc(C(=O)N3CCN(C)CC3)cc2)c2c1C(=O)NCC1(CCOCC1)C2` [Example 148, 3-(3-ethyl-4-oxo-spiro[6,8-dihydro-5H-pyrazolo[4,3-c]azepine-7,4′-tetrahydropyran]-1-yl)propyl 4-(4-methylpiperazine-1-carbonyl)benzoate], the IC50 fell in the range of 0.1 to 0.5 µM.
Turning to `CCc1nn(CCCOC(=O)c2ccc(C(=O)N3CCN(C(C)=O)CC3)cc2)c2c1C(=O)NCC1(CCOCC1)C2` [Example 149, 3-(3-ethyl-4-oxo-spiro[6,8-dihydro-5H-pyrazolo[4,3-c]azepine-7,4′-tetrahydropyran]-1-yl)propyl 4-(4-acetylpiperazine-1-carbonyl)benzoate], the IC50 lay in the range of 0.1 to 0.5 µM.
With `CCc1nn(CCCOC(=O)c2cccc(C(N)=O)c2)c2c1C(=O)NCC1(CCOCC1)C2` [Example 150, 3-(3-ethyl-4-oxo-spiro[6,8-dihydro-5H-pyrazolo[4,3-c]azepine-7,4′-tetrahydropyran]-1-yl)propyl 3-carbamoylbenzoate], the IC50 was less than 0.1 µM.
With `CCc1nn(CCCOC(=O)c2cccc(C(=O)NC)c2)c2c1C(=O)NCC1(CCOCC1)C2` [Example 151, 3-(3-ethyl-4-oxo-spiro[6,8-dihydro-5H-pyrazolo[4,3-c]azepine-7,4′-tetra-hydropyran]-1-yl)propyl 3-(methylcarbamoyl)benzoate], the IC50 was less than 0.1 µM.
With `CCNC(=O)c1cccc(C(=O)OCCCn2nc(CC)c3c2CC2(CCOCC2)CNC3=O)c1` [Example 152, 3-(3-ethyl-4-oxo-spiro[6,8-dihydro-5H-pyrazolo[4,3-c]azepine-7,4′-tetrahydropyran]-1-yl)propyl 3-(ethylcarbamoyl)benzoate], the IC50 is less than 0.1 µM.
Take `CCc1nn(CCCOC(=O)c2cccc(C(=O)N(C)C)c2)c2c1C(=O)NCC1(CCOCC1)C2` [Example 153, 3-(3-ethyl-4-oxo-spiro[6,8-dihydro-5H-pyrazolo[4,3-c]azepine-7,4′-tetrahydropyran]-1-yl)propyl 3-(dimethylcarbamoyl)-benzoate]: the IC50 is less than 0.1 µM.
For the compound `CCc1nn(CCCOC(=O)c2cccc(C(=O)NC(C)C)c2)c2c1C(=O)NCC1(CCOCC1)C2` [Example 154, 3-(3-ethyl-4-oxo-spiro[6,8-dihydro-5H-pyrazolo[4,3-c]azepine-7,4′-tetrahydropyran]-1-yl)propyl 3-(isopropylcarbamoyl)-benzoate], the IC50 was less than 0.1 µM.
To `CCc1nn(CCCOC(=O)c2cccc(C(=O)N3CCCC3)c2)c2c1C(=O)NCC1(CCOCC1)C2` [Example 155, 3-(3-ethyl-4-oxo-spiro[6,8-dihydro-5H-pyrazolo[4,3-c]azepine-7,4′-tetrahydropyran]-1-yl)propyl 3-(pyrrolidine-1-carbonyl)benzoate] belongs less than 0.1 µM; to `CCc1nn(CCCOC(=O)c2cccc(C(=O)N3CCCCC3)c2)c2c1C(=O)NCC1(CCOCC1)C2` [Example 156, 3-(3-ethyl-4-oxo-spiro[6,8-dihydro-5H-pyrazolo[4,3-c]azepine-7,4′-tetrahydropyran]-1-yl)propyl 3-(piperidine-1-carbonyl)benzoate], less than 0.1 µM.
Consider `CCc1nn(CCCOC(=O)c2cccc(C(=O)N3CCOCC3)c2)c2c1C(=O)NCC1(CCOCC1)C2` [Example 157, 3-(3-ethyl-4-oxo-spiro[6,8-dihydro-5H-pyrazolo[4,3-c]azepine-7,4′-tetrahydropyran]-1-yl)propyl 3-(morpholine-4-carbonyl)benzoate], for which the IC50 is less than 0.1 µM.
Consider `CCc1nn(CCCOC(=O)c2cccc(C(=O)N3CCN(C)CC3)c2)c2c1C(=O)NCC1(CCOCC1)C2` [Example 158, 3-(3-ethyl-4-oxo-spiro[6,8-dihydro-5H-pyrazolo[4,3-c]azepine-7,4′-tetrahydropyran]-1-yl)propyl 3-(4-methylpiperazine-1-carbonyl)benzoate], for which the IC50 was in the range of 0.1 to 0.5 µM.
Regarding `CCc1nn(CCCOC(=O)c2cccc(C(=O)N3CCN(C(C)=O)CC3)c2)c2c1C(=O)NCC1(CCOCC1)C2` [Example 159, 3-(3-ethyl-4-oxo-spiro[6,8-dihydro-5H-pyrazolo[4,3-c]azepine-7,4′-tetrahydropyran]-1-yl)propyl 3-(4-acetylpiperazine-1-carbonyl)benzoate], the IC50 was less than 0.1 µM.
To `CCc1nn(C[C@@H](C)COC(=O)C(C)C)c2c1C(=O)NCC1(CCOCC1)C2` [Example 160, [(2R)-3-(3-ethyl-4-oxo-spiro[6,8-dihydro-5H-pyrazolo[4,3-c]azepine-7,4′-tetrahydropyran]-1-yl)-2-methyl-propyl] 2-methylpropanoate] belongs less than 0.1 µM.
As to `CCc1nn(C[C@@H](C)COC(=O)C2CCCC2)c2c1C(=O)NCC1(CCOCC1)C2` [Example 161, [(2R)-3-(3-ethyl-4-oxo-spiro[6,8-dihydro-5H-pyrazolo[4,3-c]azepine-7,4′-tetrahydropyran]-1-yl)-2-methyl-propyl] cyclopentanecarboxylate], the IC50 was less than 0.1 µM.
Turning to `CCc1nn(C[C@@H](C)COC(=O)C(CC)CC)c2c1C(=O)NCC1(CCOCC1)C2` [Example 162, [(2R)-3-(3-ethyl-4-oxo-spiro[6,8-dihydro-5H-pyrazolo[4,3-c]azepine-7,4′-tetrahydropyran]-1-yl)-2-methyl-propyl] 2-ethylbutanoate], the IC50 is less than 0.1 µM.
For `CCc1nn(C[C@@H](C)COC(=O)c2ccccc2)c2c1C(=O)NCC1(CCOCC1)C2` [Example 163, [(2R)-3-(3-ethyl-4-oxo-spiro[6,8-dihydro-5H-pyrazolo[4,3-c]azepine-7,4′-tetrahydropyran]-1-yl)-2-methyl-propyl] benzoate], the IC50 is less than 0.1 µM.
`CCc1nn(C[C@@H](C)COC(=O)c2ccc(C)cc2)c2c1C(=O)NCC1(CCOCC1)C2` [Example 164, [(2R)-3-(3-ethyl-4-oxo-spiro[6,8-dihydro-5H-pyrazolo[4,3-c]azepine-7,4′-tetrahydropyran]-1-yl)-2-methyl-propyl] 4-methylbenzoate]: the IC50 is less than 0.1 µM.
As to `CCc1nn(C[C@@H](C)COC(=O)c2cccc(F)c2)c2c1C(=O)NCC1(CCOCC1)C2` [Example 165, [(2R)-3-(3-ethyl-4-oxo-spiro[6,8-dihydro-5H-pyrazolo[4,3-c]azepine-7,4′-tetrahydropyran]-1-yl)-2-methyl-propyl] 3-fluorobenzoate], the IC50 is less than 0.1 µM.
Consider `CCc1nn(C[C@@H](C)COC(=O)c2ccc(F)cc2)c2c1C(=O)NCC1(CCOCC1)C2` [Example 166, [(2R)-3-(3-ethyl-4-oxo-spiro[6,8-dihydro-5H-pyrazolo[4,3-c]azepine-7,4′-tetrahydropyran]-1-yl)-2-methyl-propyl] 4-fluorobenzoate], for which the IC50 was less than 0.1 µM.
As to `CCc1nn(C[C@@H](C)COC(=O)c2cccc(C#N)c2)c2c1C(=O)NCC1(CCOCC1)C2` [Example 167, [(2R)-3-(3-ethyl-4-oxo-spiro[6,8-dihydro-5H-pyrazolo[4,3-c]azepine-7,4′-tetrahydropyran]-1-yl)-2-methyl-propyl] 3-cyanobenzoate], the IC50 was less than 0.1 µM.
For the compound `CCc1nn(C[C@@H](C)COC(=O)c2ccc(C#N)cc2)c2c1C(=O)NCC1(CCOCC1)C2` [Example 168, [(2R)-3-(3-ethyl-4-oxo-spiro[6,8-dihydro-5H-pyrazolo[4,3-c]azepine-7,4′-tetrahydropyran]-1-yl)-2-methyl-propyl] 4-cyanobenzoate], the IC50 is less than 0.1 µM.
As for `CCc1nn(C[C@@H](C)COC(=O)c2ccc(C)c(C)c2)c2c1C(=O)NCC1(CCOCC1)C2` [Example 169, [(2R)-3-(3-ethyl-4-oxo-spiro[6,8-dihydro-5H-pyrazolo[4,3-c]azepine-7,4′-tetrahydropyran]-1-yl)-2-methyl-propyl] 3,4-dimethylbenzoate], the IC50 is less than 0.1 µM.
As for `CCc1nn(C[C@@H](C)COC(=O)c2ccc(C)cc2C)c2c1C(=O)NCC1(CCOCC1)C2` [Example 170, [(2R)-3-(3-ethyl-4-oxo-spiro[6,8-dihydro-5H-pyrazolo[4,3-c]azepine-7,4′-tetrahydropyran]-1-yl)-2-methyl-propyl] 2,4-dimethylbenzoate], the IC50 was less than 0.1 µM.
As to `CCc1nn(C[C@@H](C)COC(=O)c2cccc(OC)c2)c2c1C(=O)NCC1(CCOCC1)C2` [Example 171, [(2R)-3-(3-ethyl-4-oxo-spiro[6,8-dihydro-5H-pyrazolo[4,3-c]azepine-7,4′-tetrahydropyran]-1-yl)-2-methyl-propyl] 3-methoxybenzoate], the IC50 was less than 0.1 µM.
Regarding `CCc1nn(C[C@@H](C)COC(=O)c2ccc(C)cc2F)c2c1C(=O)NCC1(CCOCC1)C2` [Example 172, [(2R)-3-(3-ethyl-4-oxo-spiro[6,8-dihydro-5H-pyrazolo[4,3-c]azepine-7,4′-tetrahydropyran]-1-yl)-2-methyl-propyl] 2-fluoro-4-methyl-benzoate], the IC50 is less than 0.1 µM.
Consider `CCc1nn(C[C@@H](C)COC(=O)c2cc(F)ccc2C)c2c1C(=O)NCC1(CCOCC1)C2` [Example 173, [(2R)-3-(3-ethyl-4-oxo-spiro[6,8-dihydro-5H-pyrazolo[4,3-c]azepine-7,4′-tetrahydropyran]-1-yl)-2-methyl-propyl] 5-fluoro-2-methyl-benzoate], for which the IC50 was less than 0.1 µM.
